PubChem BioAssay AID1259407 (Chemical Carcinogenesis Research Information System (CCRIS), 2018)
The source made the active and inactive calls. No rule for the calls is given here.

Test system: CCRIS mutagenicity, Ames/micronucleus/aberration tests
Experiment: CCRIS mutagenicity studies
[1] = Test System: AMES SALMONELLA TYPHIMURIUM, Strain/Indicator: TA98, Metabolic Activation: NONE, Method: PREINCUBATION
[2] = Test System: AMES SALMONELLA TYPHIMURIUM, Strain/Indicator: TA100, Metabolic Activation: NONE, Method: PREINCUBATION
[3] = Test System: AMES SALMONELLA TYPHIMURIUM, Strain/Indicator: TA1535, Metabolic Activation: NONE, Method: PREINCUBATION
[4] = Test System: AMES SALMONELLA TYPHIMURIUM, Strain/Indicator: TA1537, Metabolic Activation: NONE, Method: PREINCUBATION
[5] = Test System: AMES SALMONELLA TYPHIMURIUM, Strain/Indicator: TA1538, Metabolic Activation: NONE, Method: PREINCUBATION

Question: With `O=C(O)C(F)(F)C(F)(Cl)C(F)(F)C(F)(Cl)C(F)(F)Cl` (stereo unspecified) as the molecule, how does the mutagenic call [1] read?
Answer: Its mutagenic call is “inactive; negative”.

Question: And the mutagenic call (Test System: AMES SALMONELLA TYPHIMURIUM, Strain/Indicator: TA98, Metabolic Activation: RAT, LIVER, S-9, Method: PREINCUBATION)?
Answer: Its mutagenic call is “inactive; negative”.

Question: What about the mutagenic call [2] of the same molecule?
Answer: Its mutagenic call is “inactive; negative”.

Question: What about the mutagenic call (Test System: AMES SALMONELLA TYPHIMURIUM, Strain/Indicator: TA100, Metabolic Activation: RAT, LIVER, S-9, Method: PREINCUBATION) of the same molecule?
Answer: Its mutagenic call is “inactive; negative”.

Question: What about the mutagenic call [3] of the same molecule?
Answer: The mutagenic call was “inactive; negative”.

Question: What about the mutagenic call (Test System: AMES SALMONELLA TYPHIMURIUM, Strain/Indicator: TA1535, Metabolic Activation: RAT, LIVER, S-9, Method: PREINCUBATION) of the same molecule?
Answer: The mutagenic call was “inactive; negative”.

Question: And the mutagenic call [4]?
Answer: Its mutagenic call is “inactive; negative”.

Question: And the mutagenic call (Test System: AMES SALMONELLA TYPHIMURIUM, Strain/Indicator: TA1537, Metabolic Activation: RAT, LIVER, S-9, Method: PREINCUBATION)?
Answer: The mutagenic call was “inactive; negative”.

Question: And the mutagenic call [5]?
Answer: The mutagenic call was “inactive; negative”.

Question: And the mutagenic call (Test System: AMES SALMONELLA TYPHIMURIUM, Strain/Indicator: TA1538, Metabolic Activation: RAT, LIVER, S-9, Method: PREINCUBATION)?
Answer: The mutagenic call was “inactive; negative”.

Question: And the mutagenic call (Test System: CHINESE HAMSTER OVARY, Strain/Indicator: CHO-K1-BH4 (HGPRT), Metabolic Activation: NONE, Method: STANDARD PLATE)?
Answer: Its mutagenic call is “inactive; negative”.

Question: And the mutagenic call (Test System: CHINESE HAMSTER OVARY, Strain/Indicator: CHO-K1-BH4 (HGPRT), Metabolic Activation: RAT, LIVER, S-9, Method: STANDARD PLATE)?
Answer: The mutagenic call was “inactive; negative”.

Question: And the mutagenic call (Test System: UDS RODENT HEPATOCYTES, Strain/Indicator: THY INCORP (NON-S-PHASE), Metabolic Activation: NONE, Method: AUTORADIOGRAPHY)?
Answer: The mutagenic call was “inactive; negative”.

Question: Which results are given for `CCCCCCCCCCCCc1ccccc1`?
Answer: mutagenic call [1]: inactive; negative; mutagenic call (Test System: AMES SALMONELLA TYPHIMURIUM, Strain/Indicator: TA98, Metabolic Activation: RAT, LIVER, S-9, KC 500, Method: PREINCUBATION): inactive; negative; mutagenic call [2]: inactive; negative; mutagenic call (Test System: AMES SALMONELLA TYPHIMURIUM, Strain/Indicator: TA100, Metabolic Activation: RAT, LIVER, S-9, KC 500, Method: PREINCUBATION): inactive; negative; mutagenic call [3]: inactive; negative; mutagenic call (Test System: AMES SALMONELLA TYPHIMURIUM, Strain/Indicator: TA1535, Metabolic Activation: RAT, LIVER, S-9, KC 500, Method: PREINCUBATION): inactive; negative; mutagenic call [4]: inactive; negative; mutagenic call (Test System: AMES SALMONELLA TYPHIMURIUM, Strain/Indicator: TA1537, Metabolic Activation: RAT, LIVER, S-9, KC 500, Method: PREINCUBATION): inactive; negative; mutagenic call [5]: inactive; negative; mutagenic call (Test System: AMES SALMONELLA TYPHIMURIUM, Strain/Indicator: TA1538, Metabolic Activation: RAT, LIVER, S-9, KC 500, Method: PREINCUBATION): inactive; negative; mutagenic call (Test System: E. COLI, Strain/Indicator: WP2 UVRA, Metabolic Activation: NONE, Method: PREINCUBATION): inactive; negative; mutagenic call (Test System: E. COLI, Strain/Indicator: WP2 UVRA, Metabolic Activation: RAT, LIVER, S-9, KC 500, Method: PREINCUBATION): inactive; negative

Question: What does the source list for `COc1ccc2c(cc3c4c(cc5c(c42)OCO5)C(=O)C(=O)N3C)c1OC`?
Answer: mutagenic call (Test System: AMES SALMONELLA TYPHIMURIUM, Strain/Indicator: TA98, Metabolic Activation: RAT, LIVER, S-9, PHENOBARBITAL AND BETA-NAPHTHOFLAVONE, Method: PREINCUBATION): active; positive; mutagenic call (Test System: AMES SALMONELLA TYPHIMURIUM, Strain/Indicator: TA100, Metabolic Activation: RAT, LIVER, S-9, PHENOBARBITAL AND BETA-NAPHTHOFLAVONE, Method: PREINCUBATION): active; positive

Question: How did the mutagenic call (Test System: AMES SALMONELLA TYPHIMURIUM, Strain/Indicator: TA100, Method: PREINCUBATION) turn out when `CCN(CC)c1ccc(C(=C2C=CC(=[N+](CC)CC)C=C2)c2ccccc2)cc1` was run?
Answer: The mutagenic call was “active; positive”.

Question: What does the source list for `COC(=O)Nc1cccc(OC(=O)Nc2cccc(C)c2)c1`?
Answer: mutagenic call (Test System: AMES SALMONELLA TYPHIMURIUM, Strain/Indicator: TA97, Metabolic Activation: HAMSTER, LIVER, S-9, AROCLOR 1254 (30%), Method: PREINCUBATION): inactive; negative; mutagenic call (Test System: AMES SALMONELLA TYPHIMURIUM, Strain/Indicator: TA97, Metabolic Activation: NONE, Method: PREINCUBATION): inactive; negative; mutagenic call (Test System: AMES SALMONELLA TYPHIMURIUM, Strain/Indicator: TA97, Metabolic Activation: RAT, LIVER, S-9, AROCLOR 1254 (30%), Method: PREINCUBATION): inactive; negative; mutagenic call (Test System: AMES SALMONELLA TYPHIMURIUM, Strain/Indicator: TA98, Metabolic Activation: HAMSTER, LIVER, S-9, AROCLOR 1254 (10 OR 30%), Method: PREINCUBATION): inactive; negative; mutagenic call (Test System: AMES SALMONELLA TYPHIMURIUM, Strain/Indicator: TA98, Metabolic Activation: HAMSTER, LIVER, S-9, AROCLOR 1254 (30%), Method: PREINCUBATION): active; positive; mutagenic call [1]: inactive; negative; mutagenic call (Test System: AMES SALMONELLA TYPHIMURIUM, Strain/Indicator: TA98, Metabolic Activation: RAT, LIVER, S-9, AROCLOR 1254 (30%), Method: PREINCUBATION): inactive; negative; mutagenic call (Test System: AMES SALMONELLA TYPHIMURIUM, Strain/Indicator: TA100, Metabolic Activation: HAMSTER, LIVER, S-9, AROCLOR 1254 (30%), Method: PREINCUBATION): inactive; negative; mutagenic call [2]: inactive; negative; mutagenic call (Test System: AMES SALMONELLA TYPHIMURIUM, Strain/Indicator: TA100, Metabolic Activation: RAT, LIVER, S-9, AROCLOR 1254 (30%), Method: PREINCUBATION): inactive; negative; mutagenic call (Test System: AMES SALMONELLA TYPHIMURIUM, Strain/Indicator: TA1538, Metabolic Activation: HAMSTER, LIVER, S-9, AROCLOR 1254 (10%), Method: PREINCUBATION): inactive; negative; mutagenic call (Test System: AMES SALMONELLA TYPHIMURIUM, Strain/Indicator: TA1538, Metabolic Activation: HAMSTER, LIVER, S-9, AROCLOR 1254 (30%), Method: PREINCUBATION): active; positive; mutagenic call [5]: inactive; negative; mutagenic call (Test System: AMES SALMONELLA TYPHIMURIUM, Strain/Indicator: TA1538, Metabolic Activation: RAT, LIVER, S-9, AROCLOR 1254 (30%), Method: PREINCUBATION): inactive; negative

Question: `Cc1cccc2c1cc1c3c(cccc32)-c2ccccc2-1` was tested. Which mutagenic call (Test System: AMES SALMONELLA TYPHIMURIUM, Strain/Indicator: TA100, Metabolic Activation: RAT, LIVER, S-9, AROCLOR 1254) did it give?
Answer: The mutagenic call was “active; positive”.

Question: What does the source list for `Nc1ccc(Oc2ccccc2)cc1`?
Answer: mutagenic call [1]: inactive; negative; mutagenic call (Test System: AMES SALMONELLA TYPHIMURIUM, Strain/Indicator: TA98, Metabolic Activation: RAT, BLADDER, S-9, PCB, Method: FLUCTUATION TEST): active; positive; mutagenic call (Test System: AMES SALMONELLA TYPHIMURIUM, Strain/Indicator: TA98, Metabolic Activation: RAT, LIVER, S-9, PCB, Method: PREINCUBATION): active; positive; mutagenic call (Test System: AMES SALMONELLA TYPHIMURIUM, Strain/Indicator: TA100, Metabolic Activation: GUINEA PIG, LIVER, S-9, KANECLOR 500, Method: STANDARD PLATE): active; positive; mutagenic call [2]: inactive; negative; mutagenic call (Test System: AMES SALMONELLA TYPHIMURIUM, Strain/Indicator: TA100, Metabolic Activation: RAT, BLADDER, S-9, PCB, Method: FLUCTUATION TEST): active; positive; mutagenic call (Test System: AMES SALMONELLA TYPHIMURIUM, Strain/Indicator: TA100, Metabolic Activation: RAT, LIVER, S-9, PCB, Method: PREINCUBATION): active; positive

Question: How did the mutagenic call (Test System: MOUSE LYMPHOMA, Strain/Indicator: L5178Y (TK+/TK-), Metabolic Activation: NONE, Method: SUSPENSION/PLATE) turn out when `COc1cccc(C=O)c1` was run?
Answer: The mutagenic call was “inactive; negative”.
